Source: publication PMC9518609, “Design and synthesis of new trimethoxylphenyl-linked combretastatin analogues loaded on diamond nanoparticles as a panel for ameliorated solubility and antiproliferative activity” (Journal of Enzyme Inhibition and Medicinal Chemistry, 2022)

Key:
Format in all cases: cell-based
[1] = test system: MCF-10A; test: MTT cytotoxic activity against breast MCF-10A cell line; details: MTT assay, 24 h treatment
Text: All the synthesised compounds were screened for their cytotoxic activity against breast MDA-MB-231 cancer cell line and compounds 6 and 12 against breast MCF-10A cell line taking CA-4 as a positive control for the analysis. The in vitro cytotoxicity results of the prepared compounds were systematised in Table 1. […] Structurally, the prepared molecules contain three structural variations; including rotatable hydrazide derivatives, the core exchange with imidazolone ring, and the ring expansion with triazinone motif. […] It is noticed that directly attached benzene ring to triazinone scaffold (compound 6) or bioisosteric group (thiazolyl ester) as in compound 12, may contribute to the astonishing cytotoxicity against breast MDA-MB-231 cancer cells.
Part I: Biological Studies
4.3. Biological evaluation
4.3.1. Cytotoxic activity evaluation
The cytotoxic actvity of the synthesized derivatives 2a-13e was measured in MDA-MB-231 breast cancer cell line and derivatives 6 and 12 in MCF-10A […].
Cell viability assay was assessed using MTT assay method. Cells at density of 1 x 104 were seeded in a 96-well plate at 37 °C for 24 h under 5% CO2. After incubation, the cells were treated with different concentrations of the test schiff bases 2a-13e and incubated for 24 h, then 20 µl of MTT solution at 5 mg/mL was applied and incubated for 4 h at 37 °C.
Dimethyl sulphoxide (DMSO) in volume of 100 µl was added to each well to dissolve the purple formazan that had formed. The color intensity of the formazan product, which represents the growth condition of the cells, is quantified by using an ELISA plate reader (EXL 800, USA) at 570 nm absorbance. […]
Compounds 6, 12 and CA-4 were evaluated for their tubulin inhibitory activity according to manufacturer’s instructions using # abcam Human Beta-tubulin simplestep ELISA Kit ab245722. MDA-MB-231 cells were trypsinized, counted and seeded at the 2 × 105 into 96-well micro titer plates. […]
(O.D.) was measured at 450±10 nm using microplate reader (Spectromax Plus 96 well plate […]

[2] = test system: Bcl-2; test: ELISA measurement of Bcl-2 level in MDA-MB-231 cells; details: MDA-MB-231, at IC50, 24 h
Text: p53, Bax, and Bcl-2 are key regulators of the apoptosis process to keep the balance between viable and dead normal cells. Deregulation of these proteins is a common feature responsible for uncontrolled cancer cell growth. In this test, the protein expression of apoptotic regulators was examined using ELISA analysis. […]
p53, Bax, and Bcl2 enzyme activities in MDA-MB-231 cells were investigated in the presence of compounds 6 and 12 at their IC50 concentration (µM). The levels of the tumour suppressor gene p53, apoptotic markers Bax as well as the anti-apoptotic marker Bcl-2 were assessed using the p53 ELISA kit, Human Bax ELISA kit, and Bcl-2 Elisa kit. The procedure of the used kits was done according to the manufacturer's instructions and was conducted as reported earlier. […]
4.3.4.2. Effect on p53, Bax and Bcl-2 p53, Bax and Bcl2 enzyme activities in MDA-MB-231 cells were detected in the presence of compounds 6 and 12 at their IC50 concentration (µM). The levels of the tumor suppressor gene p53, apoptotic markers Bax as well as the anti-apoptotic marker Bcl-2 were assessed using p53 ELISA kit, Human Bax ELISA kit and Bcl-2 Elisa kit. The procedure of the used kits was done according to the manufacturer's instructions. […] The samples were measured at 450 nm in ROBONEK P2000 ELISA reader. […]

[3] = test system: caspase 3/7; test: Caspase 3/7 green flow cytometry assay in MDA-MB-231 cells; details: MDA-MB-231, at IC50, 24 h
Text: Further, it is important to check effector caspase 3/7. The cleavage of caspases is specifically responsible for programmed cell death and apoptosis. […] The results were shown in Figure 5 and the expression level of caspase 3/7 was increased when compared with no control cells.
Caspase 3/7 in MDA-MB-231 cells was detected using CellEvent® Caspase 3/7 Green Detection Flow Cytometry Assay Kit. Caspase 3/7 activity in the MDA-MB-231 cell line was detected in the presence of compounds 6 and 12 at their IC50 concentration (µM) using CellEvent® caspase 3/7 green detection flow cytometry assay kit according to the manufacturer’s directions. All experimental steps were conducted as reported earlier.
4.3.4.3. Caspase 3/7 assay for compounds 6 and 12
Caspase 3/7 in MDA-MB-231 cells was investigated using CellEvent® Caspase 3/7 Green Detection Flow Cytometry Assay Kit. Caspase 3/7 activity in MDA-MB-231 cell line was detected in the presence of compounds 6 and 12 at their IC50 concentration (µM) using CellEvent® caspase 3/7 green detection flow cytometry assay kit according to manufacturer’s directions. […] cells at a density of 2.5 × 10^5 per well were harvested and washed with ice cold PBS, and cell lysates were prepared and combined with reaction buffer and incubated with specific colorimetric substrates (Caspase 3/7 Detection Reagent) at 37 °C for 6 h. Detection reagent is composed of DNA binding dye conjugated to caspase 3 and caspase 7 recognition sequence (DEVD) by a short peptide linker. The released DNA binding dye binds DNA producing a bright and stable signal. Finally, the samples were analyzed at 488 nm in a BD FACS Calibur flow cytometer. All experiments were performed in triplicates.
Information Classification: General 4

Row | Compound | IC50 [1] [µM] | Bcl-2 level decrease compared with no treatment control [2] [fold] | Casp3/7 (percentage of activated caspase 3/7) [3] [%] | increase in caspase 3/7 activation relative to untreated control [3] | IC50 ([1]; Homo sapiens, MCF-10A) [µM]
1 | ethyl 2-(2-(6-oxo-5-(3,4,5-trimethoxybenzylidene)-3–(3,4,5-trimethoxyphenyl)-5,6-dihydro-1,2,4-triazin-2(1H)-yl)thiazol-4-yl)acetate [Compound 12] | 14.6 ± 1.96 | 2.96 | 7.51 | ~9.16 fold | 
2 | COc1cc(C=C2N=C(c3cc(OC)c(OC)c(OC)c3)N(c3ccccc3)NC2=O)cc(OC)c1OC [Compound 6, 2-phenyl-5-(3,4,5-trimethoxybenzylidene)-3-(3,4,5-trimethoxyphenyl)-1,2-dihydro-1,2,4-triazin-6(5H)-one] |  | 6.49 | 12.87 | about 15.70 fold | 19.5 ± 2.15
